One data set in a line: RP, 50 × 0.5 mm, 2.7 µm, 35 °C, 0.01 mL/min, estimated dead time 0.62 min; A: water + 0.1% formic acid, pH 3; B: acetonitrile + 0.1% formic acid, pH 3; gradient (min/%B) 0/5 12/95 14/95 16/5. The settings on record: stereoisomer not certain.
With `O=C(CCc1ccc(O)cc1)c1c(O)cc(O)cc1O` [Phloretin], the LC retention time was 6 min.

Regarding `O=c1cc(-c2ccc(O)cc2)oc2cc(OC3OC(CO)C(O)C(O)C3O)cc(O)c12` (centres undefined) [Apigenin 7-O-glucoside], the LC retention time was 4.87 min.

For the compound `CC1OC(OC2C(Oc3cc(O)c4c(c3)OC(c3ccc(O)cc3)CC4=O)OC(CO)C(O)C2O)C(O)C(O)C1O` (centres undefined) [Naringin], the LC retention time was 4.65 min.

Regarding `COc1ccc(C2CC(=O)c3c(O)cc(O)cc3O2)cc1O` (centres undefined) [Hesperetin], the LC retention time was 6.17 min.

On to `CC1OC(OC2C(O)C(OCCc3ccc(O)c(O)c3)OC(CO)C2OC(=O)C=Cc2ccc(O)c(O)c2)C(O)C(O)C1O` (centres undefined) [Verbascoside], for which the LC retention time is 4.6 min.

`COc1cc(-c2oc3cc(O)cc(O)c3c(=O)c2O)ccc1O` [Isorhamnetin]: the LC retention time was 4.51 min.

The next data set can be described thus: RP, Waters Atlantis T3, 100 × 2.1 mm, 3 µm, 40 °C, 0.3 mL/min, estimated dead time 0.73 min; A: water + 0.1% trifluoroacetic acid, pH 2; B: acetonitrile + 0.1% trifluoroacetic acid, pH 2; gradient (min/%B) 0/10 1/10 6/40 7/50 8/50 14/70 16/80 20/10 25/10. Particulars: stereoisomer not certain.
As to `O=C(CCc1ccc(O)cc1)c1c(O)cc(O)cc1O` [Phloretin], the LC retention time is 10 min.

As to `O=c1cc(-c2ccc(O)cc2)oc2cc(OC3OC(CO)C(O)C(O)C3O)cc(O)c12` (centres undefined) [Apigenin 7-O-glucoside], the LC retention time was 7.96 min.

For `CC1OC(OC2C(Oc3cc(O)c4c(c3)OC(c3ccc(O)cc3)CC4=O)OC(CO)C(O)C2O)C(O)C(O)C1O` (centres undefined) [Naringin], the LC retention time was 7.79 min.

As to `COc1ccc(C2CC(=O)c3c(O)cc(O)cc3O2)cc1O` (centres undefined) [Hesperetin], the LC retention time was 10.4 min.

Take `CC1OC(OC2C(O)C(OCCc3ccc(O)c(O)c3)OC(CO)C2OC(=O)C=Cc2ccc(O)c(O)c2)C(O)C(O)C1O` (centres undefined) [Verbascoside]: the LC retention time was 7.34 min.

A short description of the next data set: RP, 150 × 2.1 mm, 2.6 µm, 40 °C, 0.35 mL/min, estimated dead time 0.94 min; A: water + 0.1% formic acid, pH 3; B: acetonitrile + 0.1% formic acid, pH 3; gradient (min/%B) 0/0 1/0 12.5/100 14/100 14.2/0 15/0. The settings on record: stereoisomer not certain.
As to `O=C(CCc1ccc(O)cc1)c1c(O)cc(O)cc1O` [Phloretin], the LC retention time was 7.51 min.

As to `O=c1cc(-c2ccc(O)cc2)oc2cc(OC3OC(CO)C(O)C(O)C3O)cc(O)c12` (centres undefined) [Apigenin 7-O-glucoside], the LC retention time was 6.07 min.

For `COc1ccc(C2CC(=O)c3c(O)cc(O)cc3O2)cc1O` (centres undefined) [Hesperetin], the LC retention time is 7.8 min.

The next data set can be described thus: RP, 150 × 2.1 mm, 2.6 µm, 40 °C, 0.35 mL/min, estimated dead time 0.94 min; A: water + 0.1% formic acid, pH 3; B: acetonitrile + 0.1% formic acid, pH 3; gradient (min/%B) 0/0 1/5 7/45 8.5/80 10.5/80 11/5 12/5. The settings on record: stereoisomer not certain.
Turning to `O=C(CCc1ccc(O)cc1)c1c(O)cc(O)cc1O` [Phloretin], the LC retention time was 7.9 min.

As to `O=c1cc(-c2ccc(O)cc2)oc2cc(OC3OC(CO)C(O)C(O)C3O)cc(O)c12` (centres undefined) [Apigenin 7-O-glucoside], the LC retention time is 6.23 min.

With `COc1ccc(C2CC(=O)c3c(O)cc(O)cc3O2)cc1O` (centres undefined) [Hesperetin], the LC retention time was 8.21 min.

The next data set can be described thus: RP, Agilent ZORBAX RRHD Eclipse Plus C18, 50 × 2.1 mm, 1.8 µm, 30 °C, 0.4 mL/min, estimated dead time 0.28 min; A: water + 0.1% formic acid, pH 3; B: acetonitrile + 0.1% formic acid, pH 3; gradient (min/%B) 0/1 5/10 8/25 9.1/99 10/99 12/99. The settings on record: stereoisomer not certain.
As to `O=C(CCc1ccc(O)cc1)c1c(O)cc(O)cc1O` [Phloretin], the LC retention time was 9.3 min.

Consider `COc1ccc(C2CC(=O)c3c(O)cc(O)cc3O2)cc1O` (centres undefined) [Hesperetin], for which the LC retention time was 9.29 min.

Consider `COc1cc(-c2oc3cc(O)cc(O)c3c(=O)c2O)ccc1O` [Isorhamnetin], for which the LC retention time is 9.29 min.

The next data set can be described thus: RP, Phenomenex Synergi Hydro-RP, 150 × 2 mm, 4 µm, 30 °C, 0.5 mL/min, estimated dead time 0.6 min; A: water + 0.1% formic acid, pH 3; B: acetonitrile + 0.1% formic acid, pH 3; gradient (min/%B) 0/5 1/5 35/45 40/100 45/100. The settings on record: stereoisomer not certain.
`O=C(CCc1ccc(O)cc1)c1c(O)cc(O)cc1O` [Phloretin]: the LC retention time was 25.8 min.

Consider `O=c1cc(-c2ccc(O)cc2)oc2cc(OC3OC(CO)C(O)C(O)C3O)cc(O)c12` (centres undefined) [Apigenin 7-O-glucoside], for which the LC retention time is 17.9 min.

Regarding `CC1OC(OC2C(Oc3cc(O)c4c(c3)OC(c3ccc(O)cc3)CC4=O)OC(CO)C(O)C2O)C(O)C(O)C1O` (centres undefined) [Naringin], the LC retention time was 17.3 min.

Consider `COc1ccc(C2CC(=O)c3c(O)cc(O)cc3O2)cc1O` (centres undefined) [Hesperetin], for which the LC retention time is 26.6 min.

As for `O=c1c(O)c(-c2ccc(OS(=O)(=O)O)c(O)c2)oc2cc(O)cc(O)c12` [Quercetin 4-O-sulfate], the LC retention time was 20.7 min.

`CC1OC(OC2C(O)C(OCCc3ccc(O)c(O)c3)OC(CO)C2OC(=O)C=Cc2ccc(O)c(O)c2)C(O)C(O)C1O` (centres undefined) [Verbascoside]: the LC retention time is 15.8 min.

Regarding `COc1cc(-c2oc3cc(O)cc(O)c3c(=O)c2O)ccc1O` [Isorhamnetin], the LC retention time was 27.4 min.

The next data set is described as follows: Other, Phenomenex Kinetex PFP, 100 × 4.6 mm, 5 µm, 45 °C, 0.6 mL/min, estimated dead time 1.8 min; A: water + 0.1% trifluoroacetic acid, pH 2; B: methanol; gradient (min/%B) 0/40 20/72 21/40. The settings on record: stereoisomer not certain.
Turning to `CC1OC(OC2C(Oc3cc(O)c4c(c3)OC(c3ccc(O)cc3)CC4=O)OC(CO)C(O)C2O)C(O)C(O)C1O` (centres undefined) [Naringin], the LC retention time was 9.02 min.

As to `O=c1c(O)c(-c2ccc(OS(=O)(=O)O)c(O)c2)oc2cc(O)cc(O)c12` [Quercetin 4-O-sulfate], the LC retention time was 14.9 min.

A short description of a further data set: RP, Phenomenex Luna Omega Polar C18, 100 × 2.1 mm, 1.6 µm, 40 °C, 0.5 mL/min, estimated dead time 0.44 min; A: water + 0.1% formic acid + 10 mM ammonium formate; B: acetonitrile; gradient (min/%B) 0/5 8/20 10/100 12/100 12.1/5 14/5. Particulars: stereoisomer not certain.
Turning to `O=C(CCc1ccc(O)cc1)c1c(O)cc(O)cc1O` [Phloretin], the LC retention time was 9.58 min.

For the compound `O=c1cc(-c2ccc(O)cc2)oc2cc(OC3OC(CO)C(O)C(O)C3O)cc(O)c12` (centres undefined) [Apigenin 7-O-glucoside], the LC retention time was 9.12 min.

As for `CC1OC(OC2C(Oc3cc(O)c4c(c3)OC(c3ccc(O)cc3)CC4=O)OC(CO)C(O)C2O)C(O)C(O)C1O` (centres undefined) [Naringin], the LC retention time is 8.96 min.

As for `COc1ccc(C2CC(=O)c3c(O)cc(O)cc3O2)cc1O` (centres undefined) [Hesperetin], the LC retention time was 9.67 min.

On to `O=c1c(O)c(-c2ccc(OS(=O)(=O)O)c(O)c2)oc2cc(O)cc(O)c12` [Quercetin 4-O-sulfate], for which the LC retention time was 9.3 min.

In the case of `CC1OC(OC2C(O)C(OCCc3ccc(O)c(O)c3)OC(CO)C2OC(=O)C=Cc2ccc(O)c(O)c2)C(O)C(O)C1O` (centres undefined) [Verbascoside], the LC retention time was 8.28 min.

Take `COc1cc(-c2oc3cc(O)cc(O)c3c(=O)c2O)ccc1O` [Isorhamnetin]: the LC retention time is 9.84 min.

A further data set can be described thus: RP, Waters ACQUITY UPLC HSS T3, 100 × 2.1 mm, 1.8 µm, 30 °C, 0.4 mL/min, estimated dead time 0.55 min; A: water + 0.1% formic acid, pH 3; B: acetonitrile + 0.1% formic acid, pH 3; gradient (min/%B) 0/0 2/0 15/100 22/100 22.1/0 26/0. The settings on record: stereoisomer not certain.
With `O=C(CCc1ccc(O)cc1)c1c(O)cc(O)cc1O` [Phloretin], the LC retention time was 11.4 min.

`O=c1cc(-c2ccc(O)cc2)oc2cc(OC3OC(CO)C(O)C(O)C3O)cc(O)c12` (centres undefined) [Apigenin 7-O-glucoside]: the LC retention time was 9.6 min.

For the compound `CC1OC(OC2C(Oc3cc(O)c4c(c3)OC(c3ccc(O)cc3)CC4=O)OC(CO)C(O)C2O)C(O)C(O)C1O` (centres undefined) [Naringin], the LC retention time is 9.46 min.

Consider `COc1ccc(C2CC(=O)c3c(O)cc(O)cc3O2)cc1O` (centres undefined) [Hesperetin], for which the LC retention time is 11.7 min.

For the compound `O=c1c(O)c(-c2ccc(OS(=O)(=O)O)c(O)c2)oc2cc(O)cc(O)c12` [Quercetin 4-O-sulfate], the LC retention time was 10.6 min.

For the compound `CC1OC(OC2C(O)C(OCCc3ccc(O)c(O)c3)OC(CO)C2OC(=O)C=Cc2ccc(O)c(O)c2)C(O)C(O)C1O` (centres undefined) [Verbascoside], the LC retention time was 9.05 min.

`COc1cc(-c2oc3cc(O)cc(O)c3c(=O)c2O)ccc1O` [Isorhamnetin]: the LC retention time is 11.7 min.

Another data set in a line: RP, Phenomenex Luna Omega Polar C18, 100 × 2.1 mm, 1.6 µm, 40 °C, 0.5 mL/min, estimated dead time 0.44 min; A: water + 0.5% formic acid; B: acetonitrile + 0.5% formic acid; gradient (min/%B) 0/5 3/50 3.1/100 5/100 5.1/5 7/5. Particulars: stereoisomer not certain.
As to `O=c1cc(-c2ccc(O)cc2)oc2cc(OC3OC(CO)C(O)C(O)C3O)cc(O)c12` (centres undefined) [Apigenin 7-O-glucoside], the LC retention time was 2.6 min.

For the compound `COc1ccc(C2CC(=O)c3c(O)cc(O)cc3O2)cc1O` (centres undefined) [Hesperetin], the LC retention time is 3.57 min.

Take `O=c1c(O)c(-c2ccc(OS(=O)(=O)O)c(O)c2)oc2cc(O)cc(O)c12` [Quercetin 4-O-sulfate]: the LC retention time was 2.93 min.

Regarding `CC1OC(OC2C(O)C(OCCc3ccc(O)c(O)c3)OC(CO)C2OC(=O)C=Cc2ccc(O)c(O)c2)C(O)C(O)C1O` (centres undefined) [Verbascoside], the LC retention time was 2.49 min.

`COc1cc(-c2oc3cc(O)cc(O)c3c(=O)c2O)ccc1O` [Isorhamnetin]: the LC retention time was 3.7 min.

The next data set in a line: RP, Phenomenex Kinetex EVO C18, 100 × 2.1 mm, 2.6 µm, 40 °C, 0.4 mL/min, estimated dead time 0.55 min; A: water + 0.2% formic acid; B: acetonitrile + 0.2% formic acid; gradient (min/%B) 0/5 0.5/5 7/95 8/95 8.5/5 12/5. Particulars: stereoisomer not certain.
In the case of `CC1OC(OC2C(O)C(OCCc3ccc(O)c(O)c3)OC(CO)C2OC(=O)C=Cc2ccc(O)c(O)c2)C(O)C(O)C1O` (centres undefined) [Verbascoside], the LC retention time is 4.84 min.
